Measurements as given in US20170173002A1, “Compositions and Methods for Treating an Infection” (CMPD LICENSING, LLC, priority 2015, published 2017).

Legend:
[1] = test system: Candida species; assay: Expected efficacy of antifungal agents; conditions: expected efficacy against Candida species
[2] = test system: Cryptococcus neoformans; assay: Expected efficacy of antifungal agents; conditions: expected efficacy against Cryptococcus neoformans
[3] = test system: Blastomyces dermatitidis; assay: Expected efficacy of antifungal agents; conditions: expected efficacy against Blastomyces dermatitidis
[4] = test system: Aspergillus flavus; assay: Expected efficacy of antifungal agents; conditions: expected efficacy against Aspergillus flavus
[5] = test system: Coccidioides immitis; conditions: expected efficacy against Coccidioides immitis
[6] = test system: Trichophyton mentagrophytes; assay: Expected efficacy of antifungal agents; conditions: expected efficacy against Trichophyton mentagrophytes
[7] = test system: Histoplasma duboisii; conditions: expected efficacy against Histoplasma duboisii
[8] = test system: Sporothrix schenckii; assay: Expected efficacy of antifungal agents; conditions: expected efficacy against Sporothrix schenckii
[9] = test system: Paracoccidioides brasiliensis; assay: Expected efficacy of antifungal agents; conditions: expected efficacy against Paracoccidioides brasiliensis
[10] = test system: Trichophyton rubrum; assay: Expected efficacy of antifungal agents; conditions: expected efficacy against Trichophyton rubrum
[11] = test system: Aspergillus fumigatus; assay: Expected efficacy of antifungal agents; conditions: expected efficacy against Aspergillus fumigatus

Measured: Efficacy

CCC(C)n1ncn(-c2ccc(N3CCN(c4ccc(OC[C@H]5CO[C@](Cn6cncn6)(c6ccc(Cl)cc6Cl)O5)cc4)CC3)cc2)c1=O (mixture of isomers) [Itraconazole]
yes: all assays above
